Earlier results in patent US11406619B2, “Injectable formulations” (priority 2020, dated 2022).

Details: according to the Human Metabolome Database; cited from earlier work

In the case of `CN(C)CCc1c[nH]c2ccccc12` [Formulation D0, N,N-dimethyltryptamine], the degradation in solution is given as “degrades relatively quickly in solution”.
